In patent US20250082633A1, “COMPOUNDS AND METHODS FOR MODULATING SPLICING” (REMIX THERAPEUTICS INC., priority 2021, published 2025):
Read-outs that look alike come from different tables or passages of the source.

Assays:
Target C = experiment: RT-qPCR splicing assay, gene panel, Target C canonical junction (CJ) mRNA; type: cell-based; conditions: Homo sapiens, read-out: Target C CJ IC50
Procedure, shortened: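 A673 (DMEM/10% FBS) or K562 (IMDM/10% FBS) cells were treated 24 h at 37 °C with an 11-point 3-fold dilution series, top final 10 uM, DMSO ≤0.25%. Lysates underwent one-step RT-qPCR for the canonical-junction isoform with GAPDH, GUSB or PPIA as housekeeper. ΔΔCt versus DMSO was converted to RQ (2^−ΔΔCt), then to percent response.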

K562 cells = experiment: Cell Titer Glo 2.0 cell viability assay; type: cell-based; conditions: Homo sapiens, 500 cells/well, 72 hours
Procedure, shortened: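 K562 cells (500/well) in IMDM with 10% FBS were exposed to serially diluted compounds at 0.1% DMSO final. After 72 h at 37° C, 5% CO2, viability was read by CellTiter-Glo 2.0 luminescence, with medium-only blanks.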

[1] = decrease in CJ mRNA levels, larger panel of genes, Table 3

SMILES | IC50 (Target C; [1]) [nM] | GI50 (K562 cells) [nM] | IC50 (Target C) [nM]
Cc1cn2nc(-c3cc(F)c4nn(C5CCN(CCO)C6(CC6)C5)cc4c3)cc(C)c2n1 (centres unmarked) [Compound 180, 2-[7-[5-(2,8-dimethylimidazo[1,2-b]pyridazin-6-yl)-7-fluoro-indazol-2-yl]-4-azaspiro[2.5]octan-4-yl]ethanol] |  | 100 to 1000 | 100 to 1000
Cc1cn2nc(-c3cc(F)c4nn(C5CCN(C6CCC6)C6(CC6)C5)cc4c3)cc(C)c2n1 (centres unmarked) [Compound 186, 6-[2-(4-cyclobutyl-4-azaspiro[2.5]octan-7-yl)-7-fluoro-indazol-5-yl]-2,8-dimethyl-imidazo[1,2-b]pyridazine] |  | 100 to 1000 | < 100
Cc1cn2nc(-c3cc(F)c4nn(C5CCNC6(CCC6)C5)cc4c3)cc(C)c2n1 (centres unmarked) [Compound 189, 6-[2-(5-azaspiro[3.5]nonan-8-yl)-7-fluoro-indazol-5-yl]-2,8-dimethyl-imidazo[1,2-b]pyridazine] | 100 to 1000 | 100 to 1000 | 
Cc1cn2nc(-c3ccc4nn(C5CCNCC5)cc4c3)cc(C)c2n1 [Compound 192, 2,8-dimethyl-6-[2-(4-piperidyl)indazol-5-yl]imidazo[1,2-b]pyridazine] | 100 to 1000 | 100 to 1000 | 
Cc1cn2nc(-c3cc(F)c4nn(CC5CCNCC5)cc4c3)cc(C)c2n1 [Compound 212, 6-[7-fluoro-2-(4-piperidylmethyl)indazol-5-yl]-2,8-dimethyl-imidazo[1,2-b]pyridazine] | 100 to 1000 | 100 to 1000 | 

Further lines, with some results ahead:

IC50 (Target C; [1]) [nM] | GI50 (K562 cells) [nM] | SMILES | IC50 (Target C) [nM]
< 100 | 100 to 1000 | Cc1cn2nc(-c3cc(F)c4nn([C@H]5CCNC6(CC6)C5)cc4c3)cc(C)c2n1 [Compound 172] | 
100 to 1000 | 100 to 1000 | Cc1cn2nc(-c3cc(F)c4nn([C@@H]5CCNC6(CC6)C5)cc4c3)cc(C)c2n1 [Compound 173] | 
< 100 | 100 to 1000 | Cc1cn2nc(-c3cc(F)c4nn(C5CCN(C)C6(CC6)C5)cc4c3)cc(C)c2n1 (centres unmarked) [Compound 174, 6-[7-fluoro-2-(4-methyl-4-azaspiro[2.5]octan-7-yl)indazol-5-yl]-2,8-dimethyl-imidazo[1,2-b]pyridazine] | 
< 100 | 100 to 1000 | CCN1CCC(n2cc3cc(-c4cc(C)c5nc(C)cn5n4)cc(F)c3n2)CC12CC2 (centres unmarked) [Compound 177, 6-[2-(4-ethyl-4-azaspiro[2.5]octan-7-yl)-7-fluoro-indazol-5-yl]-2,8-dimethyl-imidazo[1,2-b]pyridazine] | 
< 100 | 100 to 1000 | Cc1cn2nc(-c3cc(F)c4nn(C5CCN(CC6CC6)C6(CC6)C5)cc4c3)cc(C)c2n1 (centres unmarked) [Compound 183, 6-[2-[4-(cyclopropylmethyl)-4-azaspiro[2.5]octan-7-yl]-7-fluoro-indazol-5-yl]-2,8-dimethyl-imidazo[1,2-b]pyridazine] | 
